In one assay the test system is D. melanogaster nAChRs. Briefly: Comparison of agonist activity between nAChRs expressed in X. laevis oocytes (one-way ANOVA, Kruskal-Wallis). The format is cell-based. The procedure:
(§1) We minimised the use of X. laevis according to the UK Animals (Scientific Procedures) Act, 1986. […] Oocytes were defolliculated after collagenase treatment in Ca^2+-free standard oocyte saline (Ca^2+-free SOS). cRNAs of the nAChR subunits and co-factors mixed at a concentration of 0.1 mg/mL was injected into oocytes at a volume of 50 nL. Then the oocytes were incubated in the incubation medium (SOS supplemented with sodium pyruvate (Nacalai Tesque, #13058–12), penicillin-streptomycin (MilliporeSigma, #P4333), gentamycin (Nacalai Tesque, #16672–04), and 4% horse serum (Thermo Fisher Scientific, #26050–070) for 3−4 days prior to electrophysiology.
(§2) Each defolliculated X. laevis oocyte was secured in a Perspex recording chamber and perfused with the standard oocyte saline (SOS) containing 0.5 μM atropine (SOSA) at a flow rate of 7−10 mL/min [48]. Two glass electrodes filled with 2 M KCl were impaled into each oocyte and the membrane potential was clamped at -100 mV. […] The peak amplitude of the response was measured and analysed by pCLAMP (Molecular Devices, USA).
(§3) Y=Imax/1+10^(logEC50‐X)nH
(§4) Where Y is the normalised response, X is log[ligand (M)], EC50 is the half maximal concentration (M), Imax is the maximum normalised response and nH is the Hill coefficient.
Prism software was employed for the statistical analyses. […] One-way ANOVA was used to analyse the differences of the ligand agonist activity in terms of pEC50 on the various nAChRs expressed in X. laevis as well as data obtained with D. melanogaster larvae and adults.

Another assay relates to D. melanogaster. To be noted: Dα2 knockout; cited from earlier work.
A further assay deals with Dα1/chicken β2 nAChR. To be noted: cited from earlier work.
Another assay has as its target T1, Dα2/Dα3/Dβ1 nAChR (Drosophila melanogaster, UniProt P04755+P17644+Q9W3G6).
T1 construct: Dα2 (NP_524482); Dβ1 (NP_523927); expressed in transfected cells; host or cells: Xenopus laevis oocytes (cRNA injection)
In words: Voltage-clamp electrophysiology, nAChR expressed in X. laevis oocytes. The format is cell-based, D. melanogaster. The protocol: (§5) cDNAs of the nAChR subunits and co-factors were cloned into pcDNA3.1 (+) vector (Thermo Fisher Scientific). The accession numbers of the nAChR subunits and cofactors are as follows: Dα1 (NP_524481), Dα2 (NP_524482), Dα3 (NP_525079), Dα4 (CAB77445), Dβ1 (NP_523927), Dβ2 (NP_524483), Dβ3 (NP_525098), DmRIC-3 (CAP16647), DmUNC-50 (NP_649813), and DmTMX3 (NP_648847). cRNAs were prepared using the mMESSAGE mMACHINE T7 ULTRA Transcription Kit (Thermo Fisher Scientific, #AM1345) according to the manual with the cDNA template which was cut with appropriate restriction enzymes at the 3’ end of the cDNA.
as §1, §2, §3, §4

The target of a further assay is T2, Dα3/Dβ1/Dβ2 nAChR (Drosophila melanogaster, UniProt P04755+P25162+Q9W3G6).
T2 construct: Dβ1 (NP_523927); Dβ2 (NP_524483); expressed in transfected cells; host or cells: Xenopus laevis oocytes (cRNA injection)
The assay is described as above. The format is cell-based, D. melanogaster. The protocol:
as §5, §1, §2, §3, §4

A further assay concerns Dα2/chicken β2 nAChR. To be noted: cited from earlier work.
In another assay the target is T3, Dα3/Dβ1 nAChR (Drosophila melanogaster, UniProt P04755+Q9W3G6).
T3 construct: Dβ1 (NP_523927); expressed in transfected cells; host or cells: Xenopus laevis oocytes (cRNA injection)
In words: cell-based. The format is cell-based, D. melanogaster. The protocol: as §5, §1, §2, §3, §4

Turning to `N#C/N=C1\SCCN1Cc1ccc(Cl)nc1` [Thiacloprd], the “Difference of Imax values, nAChRs compared” value in the assay with D. melanogaster nAChRs (Dα1/Dα2/Dα3/Dβ1/Dβ2 vs. Dα1/Dα2/Dα4/Dβ1/Dβ2) is -0.007; in the assay with D. melanogaster nAChRs (Dα1/Dα2/Dα3/Dβ1/Dβ2 vs. Dα1/Dα2/Dβ1/Dβ2/Dβ3) it was 0.036; with D. melanogaster nAChRs (Dα1/Dα2/Dα3/Dβ1/Dβ2 vs. Dα1/Dα3/Dα4/Dβ1/Dβ2), 0.033; in the assay with D. melanogaster nAChRs (Dα1/Dα2/Dα3/Dβ1/Dβ2 vs. Dα1/Dα3/Dβ1/Dβ2/Dβ3), -0.030; in the assay with D. melanogaster nAChRs (Dα1/Dα2/Dα3/Dβ1/Dβ2 vs. Dα2/Dα3/Dα4/Dβ1/Dβ2) it was 0.041; in the assay with D. melanogaster nAChRs (Dα1/Dα2/Dα3/Dβ1/Dβ2 vs. Dα2/Dα3/Dβ1/Dβ2/Dβ3), 0.049.
`CCN(Cc1ccc(Cl)nc1)/C(=C/[N+](=O)[O-])NC` [nitenpyram]: the “sensitivity in larvae, effect of knockout” value in the assay with D. melanogaster is on record as “enhanced”.
On to α-Bungarotoxin [α-BTX], for which the results for the “sensitivity to α-BTX” value in the assay on Dα1/chicken β2 nAChR and in the assay with Dα2/chicken β2 nAChR were “sensitive” and “resistant”, respectively. For the same compound, the “blocking effect on ACh-induced response” value on Dα2/Dα3/Dβ1 nAChR, on Dα3/Dβ1/Dβ2 nAChR and on Dα3/Dβ1 nAChR was “minimal blocking effect” throughout.
